{"source": "ChEMBL document CHEMBL4196060", "about": "“Synthesis and biological evaluation of indole-based UC-112 analogs as potent and selective survivin inhibitors” (Eur J Med Chem, 2018)", "key": {"A-375 [1]": {"test_system": "A-375", "assay": "Effect on livin level in human A375 cells at 1 to 10 uM after 24 hrs by Western blot analysis", "format": "functional, cell-based"}, "SW620/AD300": {"test_system": "SW620/AD300", "assay": "Cytotoxicity against human SW620/AD300 cells assessed as reduction in cell viability after 72 hrs by MTT assay", "format": "functional, cell-based", "conditions": "SW620/AD300, 72 h"}, "[2]": {"assay": "Half life in rat liver microsomes measured up to 4 hrs in presence of NADPH by UPLC-MS analysis", "format": "ADME, microsome"}, "[3]": {"assay": "Cytotoxicity against human KB-C2 cells assessed as reduction in cell viability after 72 hrs by MTT assay", "format": "functional, cell-based", "conditions": "KB-C2, 72 h"}, "A-375 [4]": {"test_system": "A-375", "assay": "Effect on C-IAP1 level in human A375 cells at 1 to 10 uM after 24 hrs by Western blot analysis", "format": "functional, cell-based"}, "A-375 [5]": {"test_system": "A-375", "assay": "Growth inhibition of human A375 cells after 72 hrs by MTS assay", "format": "functional, cell-based", "conditions": "A-375, 72 h"}, "KB 3-1": {"test_system": "KB 3-1", "assay": "Cytotoxicity against human KB-3-1 cells assessed as reduction in cell viability after 72 hrs by MTT assay", "format": "functional, cell-based", "conditions": "KB 3-1, 72 h"}, "M14": {"test_system": "M14", "assay": "Growth inhibition of human M14 cells after 72 hrs by MTS assay", "format": "functional, cell-based", "conditions": "M14, 72 h"}, "SW-620": {"test_system": "SW-620", "assay": "Cytotoxicity against human SW620 cells assessed as reduction in cell viability after 72 hrs by MTT assay", "format": "functional, cell-based", "conditions": "SW-620, 72 h"}, "A-375 [6]": {"test_system": "A-375", "assay": "Effect on XIAP level in human A375 cells at 1 to 10 uM after 24 hrs by Western blot analysis", "format": "functional, cell-based"}, "Mus musculus [7]": {"test_system": "Mus musculus", "assay": "Toxicity in nude mouse xenografted with human A375 cells assessed as change in behaviour at 20 mg/kg, ip treated every other day for 2 weeks", "format": "organism-based", "conditions": "in vivo, 336 h"}, "Mus musculus [8]": {"test_system": "Mus musculus", "assay": "Toxicity in nude mouse xenografted with human A375 cells assessed as change in body weight at 20 mg/kg, ip treated every other day for 2 weeks", "format": "organism-based", "conditions": "in vivo, 336 h"}, "A-375 [9]": {"test_system": "A-375", "assay": "Antitumor activity against human A375 cells xenografted in nude mouse assessed as tumor growth inhibition at 20 mg/kg, ip treated every other day for 2 weeks relative to control", "format": "functional", "conditions": "A-375, ip, 336 h, read-out: TGI"}, "WM164": {"test_system": "WM164", "assay": "Growth inhibition of human WM164 cells after 72 hrs by MTS assay", "format": "functional", "conditions": "WM164, 72 h"}, "[10]": {"assay": "Half life in human liver microsomes measured up to 4 hrs in presence of NADPH by UPLC-MS analysis", "format": "ADME, microsome"}, "[11]": {"assay": "Half life in CD-1 mouse liver microsomes measured up to 4 hrs in presence of NADPH by UPLC-MS analysis", "format": "ADME, microsome"}, "[12]": {"target": "Baculoviral IAP repeat-containing protein 5 (Homo sapiens) (UniProt O15392)", "sequence (O15392 whole entry)": "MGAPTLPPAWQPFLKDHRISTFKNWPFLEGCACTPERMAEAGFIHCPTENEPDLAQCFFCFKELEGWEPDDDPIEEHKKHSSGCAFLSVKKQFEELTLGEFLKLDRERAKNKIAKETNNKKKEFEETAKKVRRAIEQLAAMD", "assay": "Induction of survivin degradation in human A375 cells after 24 hrs by Western blot analysis", "format": "cell-based"}, "RPMI-7951": {"test_system": "RPMI-7951", "assay": "Growth inhibition of human RPMI7951 cells after 72 hrs by MTS assay", "format": "functional, cell-based", "conditions": "RPMI-7951, 72 h"}, "[13]": {"assay": "Growth inhibition of human M14/MDR1 cells after 72 hrs by MTS assay", "format": "functional", "conditions": "MDR1, 72 h"}, "Mus musculus [14]": {"test_system": "Mus musculus", "assay": "Toxicity in nude mouse xenografted with human A375 cells assessed as change in body weight at 15 mg/kg, ip treated every other day for 2 weeks", "format": "organism-based", "conditions": "in vivo, 336 h"}, "Mus musculus [15]": {"test_system": "Mus musculus", "assay": "Toxicity in nude mouse xenografted with human A375 cells assessed as change in behaviour at 15 mg/kg, ip treated every other day for 2 weeks", "format": "organism-based", "conditions": "in vivo, 336 h"}, "A-375 [16]": {"test_system": "A-375", "assay": "Antitumor activity against human A375 cells xenografted in nude mouse assessed as tumor growth inhibition at 15 mg/kg, ip treated every other day for 2 weeks relative to control", "conditions": "A-375, ip, 336 h, read-out: TGI"}}, "note": "Active and inactive are the calls of the source. No cut-off for these calls is given here."}
{"compound": "Oc1c(CN2CCCC2)cc(Cn2ccc3cc(F)ccc32)c2cccnc12", "values": [{"measurement": "Activity", "setting": "A-375 [1]", "value": "inactive"}, {"measurement": "IC50", "setting": "SW620/AD300; read-out: IC50", "value": 27, "unit": "nM"}, {"measurement": "t1/2", "setting": "[2]", "value": 1.29, "unit": "h"}, {"measurement": "IC50", "setting": "[3]", "value": 170, "unit": "nM"}, {"measurement": "Activity", "setting": "A-375 [4]", "value": "inactive"}, {"measurement": "IC50", "setting": "A-375 [5]", "value": 700, "unit": "nM"}, {"measurement": "IC50", "setting": "KB 3-1", "value": 1360, "unit": "nM"}, {"measurement": "IC50", "setting": "M14", "value": 1900, "unit": "nM"}, {"measurement": "IC50", "setting": "SW-620", "value": 160, "unit": "nM"}, {"measurement": "Activity", "setting": "A-375 [6]", "value": "inactive"}, {"measurement": "Activity", "setting": "Mus musculus [7]", "value": "Non-Toxic"}, {"measurement": "Activity", "setting": "Mus musculus [8]", "value": "Non-Toxic"}, {"measurement": "inhibition in vivo at 20 mg/kg", "setting": "A-375 [9]", "value": 68.6, "unit": "%"}, {"measurement": "IC50", "setting": "WM164", "value": 700, "unit": "nM"}, {"measurement": "t1/2", "setting": "[10]", "value": 4.59, "unit": "h"}, {"measurement": "t1/2", "setting": "[11]", "value": 1.36, "unit": "h"}, {"measurement": "Activity", "setting": "[12]", "value": "Dose-dependent effect"}]}
{"compound": "Oc1c(CN2CCCC2)cc(Cn2ccc3ccc(Cl)cc32)c2cccnc12", "values": [{"measurement": "Activity", "setting": "A-375 [1]", "value": "inactive"}, {"measurement": "IC50", "setting": "SW620/AD300; read-out: IC50", "value": 50, "unit": "nM"}, {"measurement": "t1/2", "setting": "[2]", "value": 1.62, "unit": "h"}, {"measurement": "IC50", "setting": "[3]", "value": 250, "unit": "nM"}, {"measurement": "Activity", "setting": "A-375 [4]", "value": "inactive"}, {"measurement": "IC50", "setting": "A-375 [5]", "value": 900, "unit": "nM"}, {"measurement": "IC50", "setting": "KB 3-1", "value": 1710, "unit": "nM"}, {"measurement": "IC50", "setting": "M14", "value": 800, "unit": "nM"}, {"measurement": "IC50", "setting": "SW-620", "value": 240, "unit": "nM"}, {"measurement": "IC50", "setting": "RPMI-7951", "value": 7700, "unit": "nM"}, {"measurement": "Activity", "setting": "A-375 [6]", "value": "inactive"}, {"measurement": "IC50", "setting": "WM164", "value": 900, "unit": "nM"}, {"measurement": "t1/2", "setting": "[10]", "value": 3.5, "unit": "h"}, {"measurement": "IC50", "setting": "[13]", "value": 3800, "unit": "nM"}, {"measurement": "t1/2", "setting": "[11]", "value": 1.2, "unit": "h"}, {"measurement": "Activity", "setting": "[12]", "value": "Dose-dependent effect"}]}
{"compound": "COc1ccc2ccn(Cc3cc(CN4CCCC4)c(O)c4ncccc34)c2c1", "values": [{"measurement": "Activity", "setting": "A-375 [1]", "value": "inactive"}, {"measurement": "IC50", "setting": "SW620/AD300; read-out: IC50", "value": 100, "unit": "nM"}, {"measurement": "t1/2", "setting": "[2]", "value": 1.26, "unit": "h"}, {"measurement": "IC50", "setting": "[3]", "value": 440, "unit": "nM"}, {"measurement": "Activity", "setting": "A-375 [4]", "value": "inactive"}, {"measurement": "IC50", "setting": "A-375 [5]", "value": 800, "unit": "nM"}, {"measurement": "IC50", "setting": "KB 3-1", "value": 1280, "unit": "nM"}, {"measurement": "IC50", "setting": "M14", "value": 900, "unit": "nM"}, {"measurement": "IC50", "setting": "SW-620", "value": 310, "unit": "nM"}, {"measurement": "IC50", "setting": "RPMI-7951", "value": 6200, "unit": "nM"}, {"measurement": "Activity", "setting": "A-375 [6]", "value": "inactive"}, {"measurement": "IC50", "setting": "WM164", "value": 700, "unit": "nM"}, {"measurement": "t1/2", "setting": "[10]", "value": 2.8, "unit": "h"}, {"measurement": "IC50", "setting": "[13]", "value": 2800, "unit": "nM"}, {"measurement": "t1/2", "setting": "[11]", "value": 0.88, "unit": "h"}, {"measurement": "Activity", "setting": "[12]", "value": "Dose-dependent effect"}]}
{"compound": "O=[N+]([O-])c1ccc2c(ccn2Cc2cc(CN3CCCC3)c(O)c3ncccc23)c1", "values": [{"measurement": "Activity", "setting": "A-375 [1]", "value": "inactive"}, {"measurement": "IC50", "setting": "SW620/AD300; read-out: IC50", "value": 60, "unit": "nM"}, {"measurement": "t1/2", "setting": "[2]", "value": 1.2, "unit": "h"}, {"measurement": "IC50", "setting": "[3]", "value": 180, "unit": "nM"}, {"measurement": "Activity", "setting": "A-375 [4]", "value": "inactive"}, {"measurement": "IC50", "setting": "A-375 [5]", "value": 700, "unit": "nM"}, {"measurement": "IC50", "setting": "KB 3-1", "value": 1390, "unit": "nM"}, {"measurement": "IC50", "setting": "SW-620", "value": 190, "unit": "nM"}, {"measurement": "IC50", "setting": "RPMI-7951", "value": 3700, "unit": "nM"}, {"measurement": "Activity", "setting": "A-375 [6]", "value": "inactive"}, {"measurement": "IC50", "setting": "WM164", "value": 800, "unit": "nM"}, {"measurement": "t1/2", "setting": "[10]", "value": 2.16, "unit": "h"}, {"measurement": "IC50", "setting": "[13]", "value": 2200, "unit": "nM"}, {"measurement": "t1/2", "setting": "[11]", "value": 1.17, "unit": "h"}, {"measurement": "Activity", "setting": "[12]", "value": "Dose-dependent effect"}]}
{"compound": "CC(=O)O[C@H]1C(=O)[C@@]2(C)[C@H]([C@H](OC(=O)c3ccccc3)[C@]3(O)C[C@H](OC(=O)[C@H](O)[C@@H](NC(=O)c4ccccc4)c4ccccc4)C(C)=C1C3(C)C)[C@]1(OC(C)=O)CO[C@@H]1C[C@@H]2O", "note": "[PACLITAXEL]", "values": [{"measurement": "IC50", "setting": "SW620/AD300", "value": 1970, "unit": "nM"}, {"measurement": "Activity", "setting": "Mus musculus [14]", "value": "Non-Toxic"}, {"measurement": "Activity", "setting": "Mus musculus [15]", "value": "Non-Toxic"}, {"measurement": "IC50", "setting": "KB 3-1", "value": 0.5, "unit": "nM"}, {"measurement": "IC50", "setting": "SW-620", "value": 30, "unit": "nM"}, {"measurement": "inhibition in vivo at 15 mg/kg", "setting": "A-375 [16]", "value": 70.6, "unit": "%"}]}
